Reference: ChEMBL document CHEMBL6115025, “Discovery of Novel, Potent, Orally Bioavailable and Efficacious, Hypoxia-Inducible Factor Prolyl Hydroxylase Inhibitors for Hematopoietic Stem Cell Mobilization” (J Med Chem, 2025)
pIC50: −log10 of the molar value.

Assays:
Egl nine homolog 1 = Egl nine homolog 1 (Homo sapiens, UniProt Q9GZT9); experiment: Inhibition of PHD2 (unknown origin) using [1-14C]alphaKG as substrate assessed as substrate decarboxylation by measuring 14CO2 production incubated for 2 hrs by microplate reader analysis
Chain of Egl nine homolog 1 (Q9GZT9 whole entry): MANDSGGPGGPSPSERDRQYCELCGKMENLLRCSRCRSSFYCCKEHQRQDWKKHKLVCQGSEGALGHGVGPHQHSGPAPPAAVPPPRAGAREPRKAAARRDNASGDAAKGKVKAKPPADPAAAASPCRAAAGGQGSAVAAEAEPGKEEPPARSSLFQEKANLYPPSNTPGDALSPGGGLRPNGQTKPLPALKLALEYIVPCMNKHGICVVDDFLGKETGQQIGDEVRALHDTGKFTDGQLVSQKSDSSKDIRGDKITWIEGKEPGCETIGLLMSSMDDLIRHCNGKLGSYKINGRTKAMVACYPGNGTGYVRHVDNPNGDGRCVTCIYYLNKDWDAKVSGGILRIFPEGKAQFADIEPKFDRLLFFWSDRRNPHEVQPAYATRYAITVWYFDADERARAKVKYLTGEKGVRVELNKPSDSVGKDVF

[1] = molecular target: Voltage-gated inwardly rectifying potassium channel KCNH2 (Homo sapiens, UniProt Q12809); experiment: Inhibition of human ERG upto 100 uM; format: toxicity
Chain of Voltage-gated inwardly rectifying potassium channel KCNH2 (Q12809 whole entry): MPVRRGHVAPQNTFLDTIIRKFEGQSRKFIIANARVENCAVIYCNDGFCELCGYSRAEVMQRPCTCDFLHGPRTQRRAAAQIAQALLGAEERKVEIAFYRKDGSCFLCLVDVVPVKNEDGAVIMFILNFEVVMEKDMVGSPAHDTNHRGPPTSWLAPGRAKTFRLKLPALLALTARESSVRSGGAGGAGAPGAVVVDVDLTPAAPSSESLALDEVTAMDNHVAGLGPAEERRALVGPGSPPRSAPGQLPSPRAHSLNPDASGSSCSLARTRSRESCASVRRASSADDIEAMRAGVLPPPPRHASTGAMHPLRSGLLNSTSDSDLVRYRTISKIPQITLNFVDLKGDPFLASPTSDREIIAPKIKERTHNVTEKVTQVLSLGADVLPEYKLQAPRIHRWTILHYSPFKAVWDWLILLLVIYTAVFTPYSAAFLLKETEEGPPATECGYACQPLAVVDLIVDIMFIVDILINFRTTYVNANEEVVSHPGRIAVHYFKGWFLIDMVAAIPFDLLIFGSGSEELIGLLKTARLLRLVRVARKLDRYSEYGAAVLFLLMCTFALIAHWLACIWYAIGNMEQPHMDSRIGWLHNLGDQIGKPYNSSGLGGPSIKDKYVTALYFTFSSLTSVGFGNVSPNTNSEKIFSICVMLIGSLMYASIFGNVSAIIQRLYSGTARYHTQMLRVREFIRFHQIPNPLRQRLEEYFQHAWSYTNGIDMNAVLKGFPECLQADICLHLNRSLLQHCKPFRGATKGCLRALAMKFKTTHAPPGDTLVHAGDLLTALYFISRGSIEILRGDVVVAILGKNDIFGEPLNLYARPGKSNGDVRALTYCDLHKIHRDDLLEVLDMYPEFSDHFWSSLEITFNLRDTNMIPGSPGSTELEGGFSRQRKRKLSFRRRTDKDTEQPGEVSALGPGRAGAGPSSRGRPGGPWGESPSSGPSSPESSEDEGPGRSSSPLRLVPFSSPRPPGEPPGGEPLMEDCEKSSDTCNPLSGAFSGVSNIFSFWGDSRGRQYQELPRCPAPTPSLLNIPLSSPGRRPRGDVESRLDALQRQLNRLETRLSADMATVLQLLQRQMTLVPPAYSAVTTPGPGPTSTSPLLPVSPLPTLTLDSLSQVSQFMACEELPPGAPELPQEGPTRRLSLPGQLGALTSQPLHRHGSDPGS

SMILES: O=C(NCc1ccncc1)c1ncc2c(=O)n(Cc3ccccc3)ccc2c1O
- pIC50 (Egl nine homolog 1): 6.70

SMILES: O=C(NCc1ccnnc1)c1ncc2c(=O)n(C3CCCCC3)ccc2c1O
- inhibition (INH) [1]: Not_active
